Source: patent publication US5480777A (priority 1995, dated 1996)
Where “and” joins values, the source holds several entries; their conditions need not be identical. Equal values may be shown once.

Test system: phosphoenolpyruvate carboxylase (PEPC)
Format: biochemical, wheat germ

[K+].[O-][Cl+2]([O-])[O-] [KClO3]
k × 10^3: 24

[K+].[O-][Cl+3]([O-])([O-])[O-] [KClO4]
T1/2 (half-life seconds): 104 s | k × 10^3: 6.3

[I-].[K+] [KI]
k × 10^3: 12

N#CS [KSCN, potassium thiocyanate]
k × 10^3: 4.67 and 4.70 and 4.72 and 4.62 and 4.55 and 4.46
